Measured values: patent US20150284305A1, “FLUORINE-CONTAINING COMPOUND AND METHOD FOR PRODUCING SAME” (Asahi Glass Company, Limited, priority 2012, published 2015)

Test: Solubility test: 20 mg sample in 10 g solvent, evaluated visually
Type: physicochemical
Conditions: 20 mg in 10 g solvent (0.2 mass %), room temperature / 25° C., visual
Protocol: For evaluating the applicability thereof to a wet process, the compound to be analyzed was tested in a dissolution test in various solvents. As a comparative case, anthracene was tested for the dissolution test.
Concretely, 20 mg of the sample was weighed, and the solubility thereof (0.2 mass %) in 10 g of a solvent at room temperature was visually evaluated.
In Table 1, A means soluble, and B means insoluble. The standard of “soluble” was set as the case where the compound dissolved in an amount of 0.2% by mass or more at a solvent temperature of 25° C.

## c1ccc2cc3ccccc3cc2c1 [Comparative Example 3, Anthracene]
cyclohexane
  Solubility Test Cyclohexane: B (B means insoluble)
hexane
  Solubility Test Hexane: B (B means insoluble)
